From patent publication US3992371A, “Penicillins substituted with heterocyclic and substituted phenyl groups” (Sumitomo Chemical Company, Limited, priority 1973, dated 1976)
Converted amounts (≈) assume the structure as drawn.

What was measured:
Test in all cases: Minimal inhibitory concentration, agar dilution method
Type in all cases: cell-based
[1] = tested on: Klebsiella pneumoniae PCI602
Source text: (§1) When determined according to the agar dilution method, the penicillins (I) afford the minimal inhibitory concentrations against test microorganisms as shown in Table 2.

[2] = tested on: Staphylococcus aureus 209P
Source text: as §1

Escherichia coli NIHJ = tested on: Escherichia coli NIHJ
Source text: as §1

[3] = tested on: Pseudomonas aeruginosa 104
Source text: as §1

Proteus vulgaris HV19 = tested on: Proteus vulgaris HV19
Proteus miravilis GN2425 = tested on: Proteus miravilis GN2425

SMILES	MIC [1] [µg/mL]	MIC [2] [µg/mL]	MIC (Escherichia coli NIHJ) [µg/mL]	MIC [3] [µg/mL]	MIC (Proteus vulgaris HV19) [µg/mL]	MIC (Proteus miravilis GN2425) [µg/mL]
Cc1nc(C)c2ncc(C(=O)NC(C(=O)NC3C(=O)N4C3SC(C)(C)C4C(=O)O)c3cccc(N)c3)c(O)c2n1 (stereo not drawn) [Example 35]	6.25 (≈ 11 µM)	1.56 (≈ 2.76 µM)	0.78 (≈ 1.38 µM)	1.56 (≈ 2.76 µM)	0.025 (≈ 0.0442 µM)	1.56 (≈ 2.76 µM)
CC1(C)SC2C(NC(=O)C(NC(=O)c3cnc4cc5c(cc4c3S)OCO5)c3cccc(N)c3)C(=O)N2C1C(=O)O (stereo not drawn) [Example 36]	12.5 (≈ 21 µM)	0.78 (≈ 1.31 µM)	6.25 (≈ 10.5 µM)	3.13 (≈ 5.25 µM)	0.39 (≈ 0.655 µM)	6.25 (≈ 10.5 µM)
CC1(C)SC2C(NC(=O)C(NC(=O)c3cnc4cccnc4c3S)c3cccc(N)c3)C(=O)N2C1C(=O)O (stereo not drawn) [Example 37]	12.5 (≈ 22.6 µM)	1.56 (≈ 2.82 µM)	1.56 (≈ 2.82 µM)	0.78 (≈ 1.41 µM)	0.05 (≈ 0.0905 µM)	1.56 (≈ 2.82 µM)
COc1ccc(C(NC(=O)c2cnc3ccccc3c2S)C(=O)NC2C(=O)N3C2SC(C)(C)C3C(=O)O)cc1 (stereo not drawn) [Example 38]	12.5 (≈ 22.1 µM)	0.78 (≈ 1.38 µM)	6.25 (≈ 11 µM)	3.13 (≈ 5.52 µM)	0.39 (≈ 0.688 µM)	6.25 (≈ 11 µM)
CC1(C)SC2C(NC(=O)C(NC(=O)c3cnc4scnc4c3O)c3cccc(N)c3)C(=O)N2C1C(=O)O (stereo not drawn) [Example 40]	6.25 (≈ 11.5 µM)	1.56 (≈ 2.88 µM)	1.56 (≈ 2.88 µM)	1.56 (≈ 2.88 µM)	0.025 (≈ 0.0461 µM)	1.56 (≈ 2.88 µM)
COc1ccc(C(NC(=O)c2cnc3ccc(C)nc3c2O)C(=O)NC2C(=O)N3C2SC(C)(C)C3C(=O)O)cc1 (stereo not drawn) [Example 44]	12.5 (≈ 22.1 µM)	1.56 (≈ 2.76 µM)	3.13 (≈ 5.53 µM)	3.13 (≈ 5.53 µM)	0.05 (≈ 0.0884 µM)	6.25 (≈ 11.1 µM)
Cc1ccc2ncc(C(=O)NC(C(=O)NC3C(=O)N4C3SC(C)(C)C4C(=O)O)c3ccc(N(C)C)cc3)c(O)c2n1 (stereo not drawn) [Example 45]	6.25 (≈ 10.8 µM)	1.56 (≈ 2.7 µM)	3.13 (≈ 5.41 µM)	1.56 (≈ 2.7 µM)	0.1 (≈ 0.173 µM)	6.25 (≈ 10.8 µM)
CCOC(=O)Oc1c(C(=O)NC(C(=O)NC2C(=O)N3C2SC(C)(C)C3C(=O)O)c2ccc(OC)cc2)cnc2ccc(C)nc12 (stereo not drawn) [Example 46]	12.5 (≈ 19.6 µM)	1.56 (≈ 2.45 µM)	3.13 (≈ 4.91 µM)	3.13 (≈ 4.91 µM)	0.1 (≈ 0.157 µM)	12.5 (≈ 19.6 µM)
CC1(C)SC2C(NC(=O)C(NC(=O)c3cnc4cccnc4c3O)c3cccc(F)c3)C(=O)N2C1C(=O)O (stereo not drawn) [Example 47]	12.5 (≈ 23.2 µM)	1.56 (≈ 2.89 µM)	1.56 (≈ 2.89 µM)	1.56 (≈ 2.89 µM)	0.05 (≈ 0.0927 µM)	1.56 (≈ 2.89 µM)
CC1(C)SC2C(NC(=O)C(NC(=O)c3nc4ccccc4nc3O)c3cccc(F)c3)C(=O)N2C1C(=O)O (stereo not drawn) [Example 48]	12.5 (≈ 23.2 µM)	0.78 (≈ 1.45 µM)	3.13 (≈ 5.8 µM)	1.56 (≈ 2.89 µM)	0.2 (≈ 0.371 µM)	12.5 (≈ 23.2 µM)
CC1(C)SC2C(NC(=O)C(NC(=O)c3cnc4cc5c(cc4c3O)OCC5)c3cccc(N)c3)C(=O)N2C1C(=O)O (stereo not drawn) [Example 49]	6.25 (≈ 10.8 µM)	0.78 (≈ 1.35 µM)	3.13 (≈ 5.42 µM)	3.13 (≈ 5.42 µM)	0.2 (≈ 0.346 µM)	3.13 (≈ 5.42 µM)
CC1(C)SC2C(NC(=O)C(NC(=O)c3cnc4c5c(ccc4c3O)CCC5)c3cccc(N)c3)C(=O)N2C1C(=O)O (stereo not drawn) [Example 50]	12.5 (≈ 21.7 µM)	0.78 (≈ 1.35 µM)	3.13 (≈ 5.44 µM)	3.13 (≈ 5.44 µM)	0.39 (≈ 0.677 µM)	12.5 (≈ 21.7 µM)
CSc1nc2ccc3ncc(C(=O)NC(C(=O)NC4C(=O)N5C4SC(C)(C)C5C(=O)O)c4cccc(N)c4)c(O)c3c2s1 (stereo not drawn) [Example 51]	6.25 (≈ 9.78 µM)	0.78 (≈ 1.22 µM)	3.13 (≈ 4.9 µM)	3.13 (≈ 4.9 µM)	0.2 (≈ 0.313 µM)	3.13 (≈ 4.9 µM)
CCNc1ccc2ncc(C(=O)NC(C(=O)NC3C(=O)N4C3SC(C)(C)C4C(=O)O)c3cccc(N)c3)c(O)c2n1 (stereo not drawn) [Example 55]	6.25 (≈ 10.8 µM)	1.56 (≈ 2.69 µM)	0.78 (≈ 1.35 µM)	1.56 (≈ 2.69 µM)	0.025 (≈ 0.0431 µM)	0.78 (≈ 1.35 µM)
Cc1nc(O)c2c(O)c(C(=O)NC(C(=O)NC3C(=O)N4C3SC(C)(C)C4C(=O)O)c3cccc(N)c3)cnc2n1 (stereo not drawn) [Example 56]	6.25 (≈ 11 µM)	1.56 (≈ 2.75 µM)	1.56 (≈ 2.75 µM)	3.13 (≈ 5.51 µM)	0.05 (≈ 0.0881 µM)	3.13 (≈ 5.51 µM)
COc1nc(OC)c2ncc(C(=O)NC(C(=O)NC3C(=O)N4C3SC(C)(C)C4C(=O)O)c3cccc(N)c3)c(O)c2n1 (stereo not drawn) [Example 57]	6.25 (≈ 10.5 µM)	1.56 (≈ 2.61 µM)	0.78 (≈ 1.31 µM)	1.56 (≈ 2.61 µM)	0.025 (≈ 0.0418 µM)	1.56 (≈ 2.61 µM)

More lines, now with the values ahead:

MIC [1] [µg/mL]	MIC [2] [µg/mL]	MIC (Escherichia coli NIHJ) [µg/mL]	MIC [3] [µg/mL]	MIC (Proteus vulgaris HV19) [µg/mL]	MIC (Proteus miravilis GN2425) [µg/mL]	SMILES
12.5 (≈ 23.1 µM)	0.78 (≈ 1.44 µM)	3.13 (≈ 5.79 µM)	3.13 (≈ 5.79 µM)	0.1 (≈ 0.185 µM)	6.25 (≈ 11.6 µM)	COc1ccc(C(NC(=O)c2cnc3cn[nH]c3c2O)C(=O)NC2C(=O)N3C2SC(C)(C)C3C(=O)O)cc1 (stereo not drawn) [Example 34]
6.25 (≈ 11 µM)	0.78 (≈ 1.37 µM)	0.78 (≈ 1.37 µM)	0.78 (≈ 1.37 µM)	0.025 (≈ 0.044 µM)	0.78 (≈ 1.37 µM)	COc1cnc2c(O)c(C(=O)NC(C(=O)NC3C(=O)N4C3SC(C)(C)C4C(=O)O)c3cccc(N)c3)cnc2n1 (stereo not drawn) [Example 39]
12.5 (≈ 22.7 µM)	1.56 (≈ 2.83 µM)	3.13 (≈ 5.67 µM)	3.13 (≈ 5.67 µM)	0.39 (≈ 0.707 µM)	12.5 (≈ 22.7 µM)	COc1ccc(C(NC(=O)c2cnc3ccncc3c2O)C(=O)NC2C(=O)N3C2SC(C)(C)C3C(=O)O)cc1 (stereo not drawn) [Example 41]
12.5 (≈ 22.6 µM)	1.56 (≈ 2.82 µM)	3.13 (≈ 5.66 µM)	3.13 (≈ 5.66 µM)	0.05 (≈ 0.0905 µM)	1.56 (≈ 2.82 µM)	CC1(C)SC2C(NC(=O)C(NC(=O)c3cnc4nc(N)ncc4c3O)c3cccc(N)c3)C(=O)N2C1C(=O)O (stereo not drawn) [Example 42]
12.5 (≈ 22.1 µM)	1.56 (≈ 2.75 µM)	3.13 (≈ 5.52 µM)	3.13 (≈ 5.52 µM)	0.05 (≈ 0.0882 µM)	1.56 (≈ 2.75 µM)	CNc1ncc2c(O)c(C(=O)NC(C(=O)NC3C(=O)N4C3SC(C)(C)C4C(=O)O)c3cccc(N)c3)cnc2n1 (stereo not drawn) [Example 43]
6.25 (≈ 10.3 µM)	1.56 (≈ 2.58 µM)	0.78 (≈ 1.29 µM)	1.56 (≈ 2.58 µM)	0.05 (≈ 0.0826 µM)	1.56 (≈ 2.58 µM)	CC1(C)SC2C(NC(=O)C(NC(=O)c3cnc4ccc(N5CCCC5)nc4c3O)c3ccc(N)cc3)C(=O)N2C1C(=O)O (stereo not drawn) [Example 52]
6.25 (≈ 10.3 µM)	1.56 (≈ 2.57 µM)	3.13 (≈ 5.16 µM)	3.13 (≈ 5.16 µM)	0.025 (≈ 0.0412 µM)	3.13 (≈ 5.16 µM)	CC1(C)SC2C(NC(=O)C(NC(=O)c3cnc4nc(N5CCCC5)ncc4c3O)c3cccc(N)c3)C(=O)N2C1C(=O)O (stereo not drawn) [Example 53]
6.25 (≈ 10 µM)	1.56 (≈ 2.51 µM)	3.13 (≈ 5.03 µM)	3.13 (≈ 5.03 µM)	0.05 (≈ 0.0803 µM)	3.13 (≈ 5.03 µM)	CC1(C)SC2C(NC(=O)C(NC(=O)c3cnc4nc(N5CCOCC5)ncc4c3O)c3ccc(N)cc3)C(=O)N2C1C(=O)O (stereo not drawn) [Example 54]
12.5 (≈ 22.7 µM)	1.56 (≈ 2.83 µM)	1.56 (≈ 2.83 µM)	3.13 (≈ 5.67 µM)	0.05 (≈ 0.0906 µM)	3.13 (≈ 5.67 µM)	Cc1ncc2c(O)c(C(=O)NC(C(=O)NC3C(=O)N4C3SC(C)(C)C4C(=O)O)c3cccc(N)c3)cnc2n1 (stereo not drawn) [Example 58]
12.5 (≈ 22.6 µM)	0.78 (≈ 1.41 µM)	3.13 (≈ 5.65 µM)	1.56 (≈ 2.82 µM)	0.1 (≈ 0.181 µM)	6.25 (≈ 11.3 µM)	CCn1ncc2c(O)c(C(=O)NC(C(=O)NC3C(=O)N4C3SC(C)(C)C4C(=O)O)c3ccc(N)cc3)cnc21 (stereo not drawn) [Example 59]
